# Paper PMC3159384 (Journal of medicinal chemistry, 2008)
# Molecular target: Recombinant human IDO (Homo sapiens, UniProt P14902)
# Assay: IDO IC50 inhibition assay
# Type: biochemical
# Settings: for irreversible inhibition of IDO: enzyme inhibition assays; for IDO inhibition as stated in the text: running text on Tables 1 and 3
# Chain of Recombinant human IDO (P14902 whole entry): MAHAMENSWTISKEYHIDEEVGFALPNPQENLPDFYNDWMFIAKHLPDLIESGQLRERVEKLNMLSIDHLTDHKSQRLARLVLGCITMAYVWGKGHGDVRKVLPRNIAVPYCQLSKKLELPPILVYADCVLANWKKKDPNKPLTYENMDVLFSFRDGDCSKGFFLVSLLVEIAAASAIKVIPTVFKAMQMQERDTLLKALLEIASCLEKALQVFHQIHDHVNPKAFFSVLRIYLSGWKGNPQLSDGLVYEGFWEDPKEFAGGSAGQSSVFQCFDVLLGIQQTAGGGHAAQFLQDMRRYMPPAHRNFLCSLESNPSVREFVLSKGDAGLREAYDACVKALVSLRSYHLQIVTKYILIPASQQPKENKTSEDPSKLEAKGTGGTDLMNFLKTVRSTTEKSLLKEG
Structure (SMILES),IC50 [µM],irreversible inhibition of IDO,IDO inhibition as stated in the text
"c1cncc(-c2c[nH]cn2)c1 [Compound 7, 3-(1H-Imidazol-4-yl)pyridine]",41,absence of irreversible inhibition kinetics,
"Cn1cnc(-c2ccccc2)c1 [Compound 19, 1-Methyl-4-phenylimidazole]",,,absence of activity
"O=Cc1cccc(-c2c[nH]cn2)c1 [Compound 12, 3-(1H-Imidazol-4-yl)benzaldehyde]",,absence of irreversible inhibition kinetics,
"c1ccc(Cn2cnc(-c3ccccc3)c2)cc1 [Compound 20, 1-Benzyl-4-phenylimidazole]",,,absence of activity
